Reference: patent US7785828B1 (priority 2003, dated 2010)
Where two headings read alike, the source gives them in different places.

What was measured:
Assay type in all cases: cell-based
[1] = tested on: Fusarium graminearum
[2] = tested on: Mycosphaerella fijiensis
[3] = tested on: Septoria tritici
[4] = tested on: Fusarium graminearum
[5] = Table 2B (Dm-AMP1 based libraries), improvement compared to reference defensin protein (Rs-AFP2 for Table 2B [sic])
[6] = Table 2C (mixed diversity library), improvement compared to reference defensin protein DmAMP

| Substance | Antifungal activity, Fusarium graminearum (improvement compared to DmAMP1) [1] | Antifungal activity, Mycosphaerella fijiensis (improvement compared to DmAMP1) [2] | Antifungal activity, Septoria tritici (improvement compared to DmAMP1) [3] | Activity (1): antifungal activity of the NP against Fusarium graminearium [4, 5] | further results |
| --- | --- | --- | --- | --- | --- |
| NLCEKASKTWSGNCGNTKHCDTQCKSWEGAKHGACHVRNGKHKCFCYFNC (Defensin like) [L5-13] | +++ (key: + indicating 1- to 5-fold improvement compared to DmAMP1; ++ indicating >5- to 10-fold improvement; +++ indicating >10-fold improvement) | + (key: + indicating 1- to 5-fold improvement compared to DmAMP1; ++ indicating >5- to 10-fold improvement; +++ indicating >10-fold improvement) | +++ (key: + indicating 1- to 5-fold improvement compared to DmAMP1; ++ indicating >5- to 10-fold improvement; +++ indicating >10-fold improvement) |  |  |
| NLCERASKTWSGNCGNTKHCDTQCKNWEGAKHGACHVRNGKHKCFCYFNC (Defensin like) [L6-83] | +++ (key: + indicating 1- to 5-fold improvement compared to DmAMP1; ++ indicating >5- to 10-fold improvement; +++ indicating >10-fold improvement) | + (key: + indicating 1- to 5-fold improvement compared to DmAMP1; ++ indicating >5- to 10-fold improvement; +++ indicating >10-fold improvement) | + (key: + indicating 1- to 5-fold improvement compared to DmAMP1; ++ indicating >5- to 10-fold improvement; +++ indicating >10-fold improvement) |  |  |
| NLCEKASKTWSGNCGNTKHCDTQCRNWEGAKHGACHKRNGKWKCFCYFNC (Defensin like) [L9-46] | +++ (key: + indicating 1- to 5-fold improvement compared to DmAMP1; ++ indicating >5- to 10-fold improvement; +++ indicating >10-fold improvement) | ++ (key: + indicating 1- to 5-fold improvement compared to DmAMP1; ++ indicating >5- to 10-fold improvement; +++ indicating >10-fold improvement) | +++ (key: + indicating 1- to 5-fold improvement compared to DmAMP1; ++ indicating >5- to 10-fold improvement; +++ indicating >10-fold improvement) |  |  |
| DGVKLCERPSKTWSGNCGNTKHCDKQCKNWEKAKHGACHVRNGKWKCFCYFNC (Defensin like) [L7-112] | + (key: + indicating 1- to 5-fold improvement compared to DmAMP1; ++ indicating >5- to 10-fold improvement; +++ indicating >10-fold improvement) | + (key: + indicating 1- to 5-fold improvement compared to DmAMP1; ++ indicating >5- to 10-fold improvement; +++ indicating >10-fold improvement) | + (key: + indicating 1- to 5-fold improvement compared to DmAMP1; ++ indicating >5- to 10-fold improvement; +++ indicating >10-fold improvement) |  |  |
| NLCERASKTWSGNCGNTKHCDNQCKNWEGAKHGACHVRNGKHKCFCYFNC [L6-60] (Defensin like) | +++ (key: + indicating 1- to 5-fold improvement compared to DmAMP1; ++ indicating >5- to 10-fold improvement; +++ indicating >10-fold improvement) | + (key: + indicating 1- to 5-fold improvement compared to DmAMP1; ++ indicating >5- to 10-fold improvement; +++ indicating >10-fold improvement) | +++ (key: + indicating 1- to 5-fold improvement compared to DmAMP1; ++ indicating >5- to 10-fold improvement; +++ indicating >10-fold improvement) |  |  |
| NLCERASKTWSGNCGNTKHCDTQCKNWEGAKHGACHKRSGKWMCFCYFNC (Defensin like) [L3-144] | ++ (key: + indicating 1- to 5-fold improvement compared to DmAMP1; ++ indicating >5- to 10-fold improvement; +++ indicating >10-fold improvement) | + (key: + indicating 1- to 5-fold improvement compared to DmAMP1; ++ indicating >5- to 10-fold improvement; +++ indicating >10-fold improvement) | + (key: + indicating 1- to 5-fold improvement compared to DmAMP1; ++ indicating >5- to 10-fold improvement; +++ indicating >10-fold improvement) |  |  |
| NLCEKASKTWSGNCGNTKHCDTQCRNWEGAKHGACHVRNGKHKCFCYFNC (Defensin like) [L6-13] | +++ (key: + indicating 1- to 5-fold improvement compared to DmAMP1; ++ indicating >5- to 10-fold improvement; +++ indicating >10-fold improvement) | ++ (key: + indicating 1- to 5-fold improvement compared to DmAMP1; ++ indicating >5- to 10-fold improvement; +++ indicating >10-fold improvement) | +++ (key: + indicating 1- to 5-fold improvement compared to DmAMP1; ++ indicating >5- to 10-fold improvement; +++ indicating >10-fold improvement) |  |  |
| NLCERASKTWSGNCGNTKHCDTQCKSWEGAAHGACHVRNGKHKCFCYFNC (Defensin like) [L6-27] | +++ (key: + indicating 1- to 5-fold improvement compared to DmAMP1; ++ indicating >5- to 10-fold improvement; +++ indicating >10-fold improvement) | + (key: + indicating 1- to 5-fold improvement compared to DmAMP1; ++ indicating >5- to 10-fold improvement; +++ indicating >10-fold improvement) | +++ (key: + indicating 1- to 5-fold improvement compared to DmAMP1; ++ indicating >5- to 10-fold improvement; +++ indicating >10-fold improvement) |  |  |
| NLCERASKTWSGNCGNTKHCDNQCRNWEGAAHGACHVRNGKHKCFCYFNC (Defensin like) [L6-59] |  | + (key: + indicating 1- to 5-fold improvement compared to DmAMP1; ++ indicating >5- to 10-fold improvement; +++ indicating >10-fold improvement) | + (key: + indicating 1- to 5-fold improvement compared to DmAMP1; ++ indicating >5- to 10-fold improvement; +++ indicating >10-fold improvement) |  |  |
| NLCERASKTWTGNCGNTKHCDTQCRSWEGAKHGACHVRNGKWKCFCYFNC (Defensin like) [L6-62] |  |  |  | + (+ indicates a 1- to 5-fold improvement in activity compared to a reference defensin protein) |  |
| NLCERASLTWTGNCGNTKHCDTQCKNWEGAKHGACHVRNGKWKCFCYFNC (Defensin like) [L3-02] |  |  |  | ++ (++ indicates a >5- to 10-fold improvement) |  |
| DGVKLCERASKTWTGNCGNTKHCDKQCKNWEGAKHGACHKRNGKWKCFCYFNC (Defensin like) [L7-107] |  |  |  |  | Activity (1): antifungal activity of the NP against Fusarium graminearium [4, 6]: + (+ indicates a 1- to 5-fold improvement in activity compared to a reference defensin protein) |
| NLCERASKTWTGNCGNTKHCDNQCKSWEGAKHGACHKRSGKWKCFCYFNC (Defensin like) [L9-04] |  |  |  | ++ (++ indicates a >5- to 10-fold improvement) |  |
| NLCERASKTWTGNCGNTKHCDNQCKNWEGAKHGACHKRSGKWKCFCYFNC (Defensin like) [L10-25] |  |  |  | + (+ indicates a 1- to 5-fold improvement in activity compared to a reference defensin protein) |  |
| NLCERASKTWSGDCGNTKHCDNQCRNWEGAKHGACHKRNGKWKCFCYFNC (Defensin like) [L10-62] |  |  |  | ++ (++ indicates a >5- to 10-fold improvement) |  |
| NLWEKASLTWTGNCGNTKHCDNQCKNWESAAHGACHKRSGKWMCFCYFNC (Defensin like) [L4-1] |  |  |  | + (+ indicates a 1- to 5-fold improvement in activity compared to a reference defensin protein) |  |
| DGVKLCEKPSQTWSHCGNTKHCDNQCKNWEGAAHGACHKRSGKWKCFCYFNC (Defensin like) [L7-231] |  |  |  |  | Activity (1): antifungal activity of the NP against Fusarium graminearium [4, 6]: ++ (++ indicates a >5- to 10-fold improvement) |
| NLCERASKTWTGNCGNTKHCDTQCRNWEGARHGACHVRNGKWKCFCYFNC (Defensin like) [L10-71] |  |  |  | ++ (++ indicates a >5- to 10-fold improvement) |  |
| NLCERASKTWTGNCGNTKHCDNQCKSWEGAKHGACHKRNGKWKCFCYFNC (Defensin like) [L10-51] |  |  |  | ++ (++ indicates a >5- to 10-fold improvement) |  |
| ELCERASLTWTGNCGNTKHCDTQCKSWEGAKHGACHKRSGKWKCFCYFNC (Defensin like) [L3-96] |  |  |  | + (+ indicates a 1- to 5-fold improvement in activity compared to a reference defensin protein) |  |
| NLCERASKTWAGNCGNTKHCDNQCRSWEGAKHGACHVRNGKWKCFCYFNC (Defensin like) [L10-33] |  |  |  | + (+ indicates a 1- to 5-fold improvement in activity compared to a reference defensin protein) |  |
| ---NLCERPSKTWTGHCGNTKHCDKQCKSWEGAKHGACHVRSGKWKCFCYFNC (Defensin like) [L7-26] |  |  |  |  | Activity (1): antifungal activity of the NP against Fusarium graminearium [4, 6]: ++ (++ indicates a >5- to 10-fold improvement) |
| NLCERASKTWTGNCGNTKHCDTQCKNWEGAKHGACHVRNGKWKCFCYFNC (Defensin like) [L6-77] |  |  |  | ++ (++ indicates a >5- to 10-fold improvement) |  |
| NLCERASKTWTGNCGNTKHCDTQCRSWEGAKHGACHVRSGKHKCFCYFNC (Defensin like) [L5-32] |  |  |  | + (+ indicates a 1- to 5-fold improvement in activity compared to a reference defensin protein) |  |
| NLCERASKTWTGNCGNTKHCDTQCKSWEGAKHGACHKRSGKWKCFCYFNC (Defensin like) [L5-21] |  |  |  | + (+ indicates a 1- to 5-fold improvement in activity compared to a reference defensin protein) |  |
| --QKLCEKASQTWTGHCGNTKHCDNQCRNWEKAAHGACHVRNGKWKCFCYFNC (Defensin like) [L7-19] |  |  |  |  | Activity (1): antifungal activity of the NP against Fusarium graminearium [4, 6]: + (+ indicates a 1- to 5-fold improvement in activity compared to a reference defensin protein) |
